# Results from patent US20230172204A1 (BASF SE, priority 2020, published 2023).
# Legend:
# [1] = system: Phakopsora pachyrhizi (F129L); assay: Protective control of soybean rust on soybeans (PHAKPA P2); assay type: in vivo; conditions: for % PHAKPA (F129L) Disease level P2 at 4 ppm: protective P2, 4 ppm; for % PHAKPA (F129L) Disease level P2 at 4 ppm / % PHAKPA (F129L) Disease level P2 at 16 ppm: soybean rust F129L; for % PHAKPA (F129L) Disease level P2 at 16 ppm: protective P2, 16 ppm
# [2] = system: Phakopsora pachyrhizi (F129L); assay: Protective control of soybean rust on soybeans (PHAKPA P6); assay type: in vivo; conditions: for % PHAKPA (F129L) Disease level P6 at 4 ppm: protective P6, 4 ppm; for % PHAKPA (F129L) Disease level P6 at 4 ppm / % PHAKPA (F129L) Disease level P6 at 16 ppm: soybean rust F129L; for % PHAKPA (F129L) Disease level P6 at 16 ppm: protective P6, 16 ppm
# Pyricularia oryzae = assay: microbe, parasite or virus in culture; assay type: cell-based; conditions: Pyricularia oryzae, 168 h, read-out: Fungal growth (%) PYRIOR
# Septoria tritici = assay: microbe, parasite or virus in culture; assay type: cell-based; conditions: Zymoseptoria tritici, 168 h, read-out: Fungal growth (%) SEPTTR
# [3] = system: Colletotrichum orbiculare; assay: Micro titer plate test against Colletotrichum orbiculare causing anthracnose (COLLLA); assay type: cell-based; conditions: Colletotrichum orbiculare, 168 h, read-out: Fungal growth (%) COLLLA
# Leptosphaeria nodorum = assay: Micro titer plate test against Leptosphaeria nodorum causing wheat leaf spots (LEPTNO); assay type: cell-based; conditions: Parastagonospora nodorum, 168 h; 0.063 ppm; read-out: Fungal growth (%) LEPTNO
# Alternaria solani (wt) = assay: microbe, parasite or virus in culture; assay type: cell-based; conditions: Alternaria solani, 168 h, read-out: Fungal growth (%) ALTESO wt
# [4] = system: Alternaria solani (F129L); assay: Micro titer plate test against Alternaria solani causing early blight (ALTESO F129L); assay type: cell-based; conditions: Alternaria solani, 168 h; 0.016 ppm; read-out: Fungal growth (%) ALTESO F129L
# Pyrenophora teres (wt) = assay: Micro titer plate test against Pyrenophora teres causing net blotch on barley (PYRNTE wt); assay type: cell-based; conditions: 168 h, 0.25 ppm, read-out: Fungal growth (%) PYRNTE wt
# [5] = system: Pyrenophora teres (F129L); assay: Micro titer plate test against Pyrenophora teres causing net blotch on barley (PYRNTE F129L); assay type: cell-based; conditions: 0.25 ppm
# Cercospora sojina = assay: microbe, parasite or virus in culture; assay type: cell-based; conditions: Cercospora sojina, 168 h; 4 ppm; read-out: Fungal growth (%) CERCSO
# Microdochium nivale = assay: Micro titer plate test against Microdochium nivale causing snow mould (MONGNI); assay type: cell-based; conditions: Microdochium nivale, 168 h; 0.016 ppm; read-out: Fungal growth (%) MONGNI
Compound,"PHAKPA (F129L) Disease level (%) P2 at 4 ppm ([1]; P2 protective, 4 ppm, % diseased leaf area) [%]","PHAKPA (F129L) Disease level (%) P2 at 16 ppm ([1]; P2 protective, 16 ppm, % diseased leaf area) [%]",% PHAKPA (F129L) Disease level P2 at 4 ppm [1] [%],% PHAKPA (F129L) Disease level P2 at 16 ppm [1] [%],% PHAKPA (F129L) Disease level P6 at 4 ppm [2] [%],% PHAKPA (F129L) Disease level P6 at 16 ppm [2] [%],activity at 0.016 ppm (Pyricularia oryzae) [%],activity at 0.25 ppm (Septoria tritici) [%],activity at 0.063 ppm [3] [%],activity at 0.063 ppm (Leptosphaeria nodorum) [%],activity at 0.016 ppm (Alternaria solani (wt); 0.016 ppm) [%],activity at 0.016 ppm [4] [%],activity at 0.25 ppm (Pyrenophora teres (wt)) [%],Fungal growth (%) PYRNTE F129L [5] [%],activity at 4 ppm (Cercospora sojina) [%],activity at 0.016 ppm (Microdochium nivale) [%],"PHAKPA (F129L) Disease level (%) P6 at 4 ppm ([2]; P6 protective, 4 ppm, % diseased leaf area) [%]","PHAKPA (F129L) Disease level (%) P6 at 16 ppm ([2]; P6 protective, 16 ppm, % diseased leaf area) [%]",activity at 0.25 ppm (Alternaria solani (wt); 0.25 ppm) [%]
CO/N=C(/C(=O)OC)c1cccc(C)c1CO/N=C(\C)c1cccc(C)c1 [Ex. 76],35,1,30,3,9,0,43,0,39,39,55,37,39,66,28,35,–,–,–
CO/N=C(/C(=O)OC)c1cccc(C)c1CO/N=C(\C)c1cccc(OC(F)(F)F)c1 [drawing 940],–,–,–,–,–,–,–,–,–,79,–,–,87,84,–,86,–,–,–
CO/N=C(/C(=O)OC)c1cccc(C)c1CO/N=C(/c1cccc(C)c1)C1CC1 [drawing 951],–,–,–,–,–,–,82,89,93,–,–,–,–,87,–,84,–,–,–
CNC(=O)/C(=N/OC)c1cccc(C)c1CO/N=C(\SC)c1cccc(Cl)c1 [drawing 968],–,–,–,–,–,–,–,–,–,–,–,–,76,80,78,100,–,–,–
CNC(=O)/C(=N/OC)c1cccc(C)c1CO/N=C(\C)c1cccc(Cl)c1 [Ex. 157],–,–,1,0,1,0,15,20,63,–,–,57,54,58,36,56,2,1,27
